Assays:
wheat = experiment: Test A pre-/postemergence herbicide test; assay type: in vivo, Triticum aestivum; details: Postemergence
How it was run: (§1)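 Directed soil spray to seeded pots (preemergence) or spray onto one- to two-leaf seedlings 2–10 cm tall (postemergence); loam/sand substrate throughout. Evaluated visually after about 10 days against untreated plants, 0 = no effect, 100 = complete control.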

sedge, umbrella = experiment: Test B flooded paddy test; assay type: in vivo, Cyperus difformis; details: 500 g ai/ha, Flood; scale of 0 to 100 where 0 is no effect and 100 is complete control
How it was run: (§2)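 Paddy-water application at a 3 cm flood, young plants having two leaves. Water level maintained; greenhouse, 13–15 days; visual 0–100 control rating.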

blackgrass = experiment: Test A postemergence herbicide test; assay type: in vivo, Alopecurus myosuroides
How it was run: (§3)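 Young potted plants in a loam–sand mix, one- to two-leaf stage and 2–10 cm tall, receive the test chemical postemergence and stay in a greenhouse for approximately 10 days. Injury is then judged by eye against untreated plants, scored 0 (none) to 100 (complete control).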

barnyardgrass [1] = experiment: Test A pre-/postemergence herbicide test; assay type: in vivo, Echinochloa crus-galli
How it was run: as §1

pigweed = experiment: Test A pre-/postemergence herbicide test; assay type: in vivo, Amaranthus retroflexus
How it was run: as §1

kochia = experiment: Test A pre-/postemergence herbicide test; assay type: in vivo, Kochia scoparia
How it was run: as §1

galium = experiment: Test A postemergence herbicide test; assay type: in vivo, Galium aparine
How it was run: as §3

ryegrass, Italian = experiment: Test A pre-/postemergence herbicide test; assay type: in vivo, Lolium multiflorum
How it was run: as §1

rice = experiment: Test B flooded paddy test; assay type: in vivo, Oryza sativa; details: 500 g ai/ha, Flood; scale of 0 to 100 where 0 is no effect and 100 is complete control
How it was run: as §2

ducksalad = experiment: Test B flooded paddy test; assay type: in vivo, Heteranthera limosa; details: 500 g ai/ha, Flood; scale of 0 to 100 where 0 is no effect and 100 is complete control
How it was run: as §2

giant foxtail = experiment: Test A pre-/postemergence herbicide test; assay type: in vivo, Setaria faberii
How it was run: as §1

corn = experiment: Test A pre-/postemergence herbicide test; assay type: in vivo, Zea mays; details: Postemergence
How it was run: as §1

barnyardgrass [2] = experiment: Test B flooded paddy test; assay type: in vivo, Echinochloa crus-galli; details: 500 g ai/ha, Flood; scale of 0 to 100 where 0 is no effect and 100 is complete control
How it was run: as §2

ragweed = experiment: Test A pre-/postemergence herbicide test; assay type: in vivo, Ambrosia elatior
How it was run: as §1

[3] = 125 g ai/ha, visual rating on 0 to 100 scale (0 no effect, 100 complete control), approx. 10 days
[4] = 500 g ai/ha, 0 to 100 scale (0 no effect, 100 complete control)
[5] = Postemergence, 125 g ai/ha, visual rating on 0 to 100 scale (0 no effect, 100 complete control), approx. 10 days
[6] = Postemergence, 500 g ai/ha, 0 to 100 scale (0 no effect, 100 complete control)
[7] = Preemergence, 125 g ai/ha, 0 to 100 scale where 0 is no effect and 100 is complete control
[8] = Preemergence, 500 g ai/ha, visual rating on 0 to 100 scale (0 no effect, 100 complete control)

CC(C)c1cccc(C2CNC(=O)C2C(=O)Nc2ccccc2C(F)(F)F)c1 (stereo not drawn) [Compound 320]
50: Plant response rating, Barnyardgrass (barnyardgrass [1]; [5]) | Ryegrass, Italian plant response rating (ryegrass, Italian; [8])
80: Barnyardgrass plant response rating (barnyardgrass [1]; [8])
70: Plant response rating, Foxtail, Giant (giant foxtail; [6])
90: Plant response rating, Barnyardgrass (barnyardgrass [1]; [6]) | Foxtail, Giant plant response rating (giant foxtail; [8])
100: Plant response rating, Ducksalad (ducksalad)
20: Plant response rating, Blackgrass (blackgrass; [4]) | Plant response rating, Barnyardgrass (barnyardgrass [1]; [7]) | Plant response rating, Kochia (kochia; [5]) | Plant response rating, Kochia (kochia; [6]) | Kochia plant response rating (kochia; [8]) | Plant response rating, Ryegrass, Italian (ryegrass, Italian; [7])
45: Plant response rating, Barnyardgrass (barnyardgrass [2])
0: Plant response rating, Wheat (wheat; [3]) | Plant response rating, Wheat (wheat; [4]) | Plant response rating, Sedge, Umbrella (sedge, umbrella) | Plant response rating, Blackgrass (blackgrass; [3]) | Plant response rating, Pigweed (pigweed; [5]) | Plant response rating, Pigweed (pigweed; [6]) | Plant response rating, Pigweed (pigweed; [7]) | Pigweed plant response rating (pigweed; [8]) | Plant response rating, Kochia (kochia; [7]) | Plant response rating, Galium (galium; [3]) | Plant response rating, Galium (galium; [4]) | Plant response rating, Ryegrass, Italian (ryegrass, Italian; [5]) | Plant response rating, Rice (rice) | Plant response rating, Corn (corn; [3]) | Plant response rating, Corn (corn; [4]) | Plant response rating, Ragweed (ragweed; [5]) | Plant response rating, Ragweed (ragweed; [7])
30: Plant response rating, Ryegrass, Italian (ryegrass, Italian; [6]) | Plant response rating, Foxtail, Giant (giant foxtail; [5]) | Plant response rating, Foxtail, Giant (giant foxtail; [7]) | Plant response rating, Ragweed (ragweed; [6]) | Ragweed plant response rating (ragweed; [8])

O=C1NCC(c2ccc(SC(F)(F)F)cc2)C1C(=O)Nc1ccccc1F (stereo not drawn) [Compound 321]
0: Plant response rating, Wheat (wheat; [3]) | Plant response rating, Wheat (wheat; [4]) | Plant response rating, Sedge, Umbrella (sedge, umbrella) | Plant response rating, Blackgrass (blackgrass; [3]) | Plant response rating, Blackgrass (blackgrass; [4]) | Plant response rating, Barnyardgrass (barnyardgrass [1]; [5]) | Plant response rating, Barnyardgrass (barnyardgrass [1]; [7]) | Plant response rating, Pigweed (pigweed; [5]) | Plant response rating, Pigweed (pigweed; [6]) | Plant response rating, Pigweed (pigweed; [7]) | Pigweed plant response rating (pigweed; [8]) | Plant response rating, Kochia (kochia; [5]) | Plant response rating, Kochia (kochia; [6]) | Plant response rating, Kochia (kochia; [7]) | Kochia plant response rating (kochia; [8]) | Plant response rating, Galium (galium; [3]) | Plant response rating, Galium (galium; [4]) | Plant response rating, Ryegrass, Italian (ryegrass, Italian; [5]) | Plant response rating, Ryegrass, Italian (ryegrass, Italian; [6]) | Plant response rating, Ryegrass, Italian (ryegrass, Italian; [7]) | Ryegrass, Italian plant response rating (ryegrass, Italian; [8]) | Plant response rating, Foxtail, Giant (giant foxtail; [5]) | Plant response rating, Foxtail, Giant (giant foxtail; [7]) | Plant response rating, Corn (corn; [3]) | Plant response rating, Corn (corn; [4]) | Plant response rating, Ragweed (ragweed; [5]) | Plant response rating, Ragweed (ragweed; [6]) | Plant response rating, Ragweed (ragweed; [7]) | Ragweed plant response rating (ragweed; [8])
40: Plant response rating, Ducksalad (ducksalad)
30: Barnyardgrass plant response rating (barnyardgrass [1]; [8])
20: Plant response rating, Barnyardgrass (barnyardgrass [2])
50: Plant response rating, Barnyardgrass (barnyardgrass [1]; [6]) | Plant response rating, Foxtail, Giant (giant foxtail; [6]) | Foxtail, Giant plant response rating (giant foxtail; [8])
15: Plant response rating, Rice (rice)
